What was measured:
Test in all cases: Protein kinase inhibition assay
Type in all cases: biochemical
BTK(h) = BTK(h) (Homo sapiens, UniProt Q06187); settings: read-out: percent residual activity of BTK(h)
Method: (§1) Certain compounds were tested for activity in protein kinase inhibition assays. All substrates were dissolved and diluted to working stocks in de-ionized water, apart from histone H1 (10× working stock in 20 mM MOPS pH 7.0), PDKtide (10× working stock in 50 mM Tris pH 7.0) ATF2 (which is typically stored at a 20× working stock in 50 mM Tris pH 7.5, 150 mM NaCl, 0.1 mM EGTA, 0.03% Brij-35, 50% glycerol, 1 mM benzamidine, 0.2 mM PMSF and 0.1% R-mercaptoethanol), KKLNRTLSFAEPG (SEQ ID NO:203) and RRRLSFAEPG (SEQ ID NO:204) (50 mM HEPES pH 7.4) and GGEEEEYFELVKKKK (SEQ ID NO:205) (20 mM MOPS pH 7.0). All kinases were pre-diluted to a 10× working concentration prior to addition into the assay. The composition of the dilution buffer for each kinase is detailed below.
(§2) In a final reaction volume of 25 μl, BTK (h) (5-10 mU) is incubated with 8 mM MOPS pH 7.0, 0.2 mM EDTA, 250 μM KVEKIGEGTYGVVYK (SEQ ID NO:211) (Cdc2 peptide), 10 mM MgAcetate and [gamma-33P-ATP] (specific activity approx. 500 cpm/pmol, concentration as required). The reaction is initiated by the addition of the MgATP mix. After incubation for 40 minutes at room temperature, the reaction is stopped by the addition of 5 μl of a 3% phosphoric acid solution. […]

MKK4(m) = MKK4(m) (Mus musculus, UniProt P47809); settings: read-out: percent residual activity of MKK4(m)
Method: as §1
The reaction is initiated by the addition of the MGATP. After incubation for 40 minutes at room temperature, 5 μl of this incubation mix is used to initiate a JNK1α1 (h) assay, which is exactly as described on page 11 of this book except that ATF2 is replaced with 250 μM peptide.

MRCKβ(h) = MRCKβ(h) (Homo sapiens, UniProt Q9Y5S2); settings: read-out: percent residual activity of MRCKβ(h)
Chain of MRCKβ(h) (Q9Y5S2 whole entry): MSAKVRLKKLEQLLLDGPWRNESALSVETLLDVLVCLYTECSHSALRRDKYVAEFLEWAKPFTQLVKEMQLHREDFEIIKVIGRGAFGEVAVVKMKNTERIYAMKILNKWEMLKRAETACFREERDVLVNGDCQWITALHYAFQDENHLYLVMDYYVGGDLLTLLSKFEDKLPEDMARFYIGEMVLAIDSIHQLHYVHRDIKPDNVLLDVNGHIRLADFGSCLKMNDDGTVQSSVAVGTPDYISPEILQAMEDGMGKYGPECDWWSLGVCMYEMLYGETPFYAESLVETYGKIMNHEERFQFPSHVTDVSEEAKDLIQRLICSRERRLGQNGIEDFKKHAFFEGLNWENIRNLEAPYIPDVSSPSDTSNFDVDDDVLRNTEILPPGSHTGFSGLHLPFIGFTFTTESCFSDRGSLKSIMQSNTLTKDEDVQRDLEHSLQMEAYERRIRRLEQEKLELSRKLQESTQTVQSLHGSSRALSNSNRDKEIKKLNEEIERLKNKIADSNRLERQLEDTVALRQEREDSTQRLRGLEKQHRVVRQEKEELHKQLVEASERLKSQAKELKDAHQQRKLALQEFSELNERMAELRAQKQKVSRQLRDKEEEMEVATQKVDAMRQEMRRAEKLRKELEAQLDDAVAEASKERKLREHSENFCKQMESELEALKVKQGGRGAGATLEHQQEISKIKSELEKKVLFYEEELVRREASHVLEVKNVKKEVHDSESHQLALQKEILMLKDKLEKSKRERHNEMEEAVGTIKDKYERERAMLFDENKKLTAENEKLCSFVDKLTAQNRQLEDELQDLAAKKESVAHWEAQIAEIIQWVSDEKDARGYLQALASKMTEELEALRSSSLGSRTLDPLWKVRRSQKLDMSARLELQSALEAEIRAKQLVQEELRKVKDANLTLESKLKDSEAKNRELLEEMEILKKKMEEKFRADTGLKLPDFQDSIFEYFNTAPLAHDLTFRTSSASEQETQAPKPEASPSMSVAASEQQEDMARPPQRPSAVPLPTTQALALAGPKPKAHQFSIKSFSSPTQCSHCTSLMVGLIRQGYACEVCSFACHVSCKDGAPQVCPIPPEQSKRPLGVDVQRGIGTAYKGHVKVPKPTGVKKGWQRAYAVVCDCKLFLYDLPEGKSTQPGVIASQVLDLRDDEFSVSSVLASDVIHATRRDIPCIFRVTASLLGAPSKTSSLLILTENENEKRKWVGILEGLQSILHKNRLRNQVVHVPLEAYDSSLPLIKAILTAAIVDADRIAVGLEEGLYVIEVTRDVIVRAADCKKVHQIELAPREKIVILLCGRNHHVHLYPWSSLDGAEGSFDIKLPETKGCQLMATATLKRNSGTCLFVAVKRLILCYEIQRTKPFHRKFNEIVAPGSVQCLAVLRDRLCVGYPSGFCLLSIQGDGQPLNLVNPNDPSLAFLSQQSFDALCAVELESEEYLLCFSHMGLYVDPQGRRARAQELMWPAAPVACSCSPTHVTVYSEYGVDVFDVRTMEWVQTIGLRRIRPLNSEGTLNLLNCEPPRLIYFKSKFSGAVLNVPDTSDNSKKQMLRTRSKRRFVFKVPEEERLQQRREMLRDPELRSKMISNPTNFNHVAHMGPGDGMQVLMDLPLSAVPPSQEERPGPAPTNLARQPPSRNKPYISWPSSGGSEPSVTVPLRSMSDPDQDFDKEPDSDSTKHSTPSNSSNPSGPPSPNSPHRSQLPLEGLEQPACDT
Method: as §1
(§3) In a final reaction volume of 25 μl, MRCKβ (h) (5-10 mU) is incubated with 8 mM MOPS pH 7.0, 0.2 mM EDTA, 100 μM KKRNRTLTV (SEQ ID NO:219), 10 mM MgAcetate and [gamma-33P-ATP] (specific activity approx. 500 cpm/pmol, concentration as required). The reaction is initiated by the addition of the MgATP mix. After incubation for 40 minutes at room temperature, the reaction is stopped by the addition of 5 μl of a 3% phosphoric acid solution. 10 μl of the reaction is then spotted onto a P30 filtermat and washed three times for 5 minutes in 75 mM phosphoric acid and once in methanol prior to drying and scintillation counting.

PKCδ(h) = PKCδ(h) (Homo sapiens, UniProt Q05655); settings: read-out: percent residual activity of PKCδ(h)
Chain of PKCδ(h) (Q05655 whole entry): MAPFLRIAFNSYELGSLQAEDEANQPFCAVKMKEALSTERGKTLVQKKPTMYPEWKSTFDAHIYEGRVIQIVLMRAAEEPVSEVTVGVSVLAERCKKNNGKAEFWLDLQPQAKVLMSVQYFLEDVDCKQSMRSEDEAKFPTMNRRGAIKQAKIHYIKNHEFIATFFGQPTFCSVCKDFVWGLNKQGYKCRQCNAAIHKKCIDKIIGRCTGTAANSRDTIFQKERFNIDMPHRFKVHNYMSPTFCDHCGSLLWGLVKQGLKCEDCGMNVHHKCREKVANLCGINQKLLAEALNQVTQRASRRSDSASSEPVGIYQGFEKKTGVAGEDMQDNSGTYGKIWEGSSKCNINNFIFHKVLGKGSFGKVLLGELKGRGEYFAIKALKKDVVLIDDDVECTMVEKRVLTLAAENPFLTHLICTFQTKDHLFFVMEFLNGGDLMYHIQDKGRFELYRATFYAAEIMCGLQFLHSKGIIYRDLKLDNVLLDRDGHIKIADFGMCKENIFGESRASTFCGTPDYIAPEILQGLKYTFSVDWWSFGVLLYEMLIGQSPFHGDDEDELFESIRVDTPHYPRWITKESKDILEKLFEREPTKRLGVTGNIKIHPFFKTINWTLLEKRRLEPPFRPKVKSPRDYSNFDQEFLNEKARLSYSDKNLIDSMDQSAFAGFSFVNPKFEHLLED
Method: as §1
as §2, with “PKCδ” for “BTK”, “20” for “8”, “HEPES” for “MOPS”, “7.4, 0.03% Triton X-100, 0.1 mg/ml phosphatidylserine, 10 μg/ml diacylglycerol, 50” for “7.0, 0.2 mM EDTA, 250”, “ERMRPRKRQGSVRRRV” for “KVEKIGEGTYGVVYK”, “NO:224),” for “NO:211) (Cdc2 peptide),”

PKCμ(h) = PKCμ(h) (Homo sapiens, UniProt Q15139); settings: read-out: percent residual activity of PKCμ(h)
Chain of PKCμ(h) (Q15139 whole entry): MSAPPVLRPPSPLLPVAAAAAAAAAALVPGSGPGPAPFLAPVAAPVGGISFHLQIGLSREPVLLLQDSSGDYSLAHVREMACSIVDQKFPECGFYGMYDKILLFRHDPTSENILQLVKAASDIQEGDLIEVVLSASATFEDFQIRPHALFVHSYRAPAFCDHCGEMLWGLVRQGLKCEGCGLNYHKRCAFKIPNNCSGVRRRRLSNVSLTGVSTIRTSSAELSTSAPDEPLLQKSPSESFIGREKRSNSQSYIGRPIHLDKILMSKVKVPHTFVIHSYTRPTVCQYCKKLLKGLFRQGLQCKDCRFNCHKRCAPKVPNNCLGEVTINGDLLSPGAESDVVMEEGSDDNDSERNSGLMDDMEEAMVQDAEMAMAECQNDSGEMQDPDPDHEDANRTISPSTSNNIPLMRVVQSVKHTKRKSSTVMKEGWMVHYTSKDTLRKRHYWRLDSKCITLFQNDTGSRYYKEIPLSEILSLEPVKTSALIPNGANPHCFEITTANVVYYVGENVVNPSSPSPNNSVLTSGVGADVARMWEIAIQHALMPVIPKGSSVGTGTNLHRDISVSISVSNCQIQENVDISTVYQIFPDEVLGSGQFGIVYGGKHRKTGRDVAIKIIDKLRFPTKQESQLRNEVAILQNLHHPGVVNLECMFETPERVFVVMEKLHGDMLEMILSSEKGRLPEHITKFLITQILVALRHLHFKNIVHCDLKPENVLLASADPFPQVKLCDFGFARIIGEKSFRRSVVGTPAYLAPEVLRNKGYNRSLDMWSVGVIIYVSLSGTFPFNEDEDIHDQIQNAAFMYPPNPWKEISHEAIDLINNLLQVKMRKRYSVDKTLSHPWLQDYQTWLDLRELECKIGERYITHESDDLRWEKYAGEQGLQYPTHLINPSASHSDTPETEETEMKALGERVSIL
Method: as §1
as §3, with “PKCμ” for “MRCKβ”, “20” for “8”, “REPES” for “MOPS”, “7.4, 0.03% Triton X-100, 30” for “7.0, 0.2 mM EDTA, 100”, “KKLNRTLSVA” for “KKRNRTLTV”, “NO:212),” for “NO:219),”

RIPK2(h) = RIPK2(h) (Homo sapiens, UniProt O43353); settings: read-out: percent residual activity of RIPK2(h)
Chain of RIPK2(h) (O43353 whole entry): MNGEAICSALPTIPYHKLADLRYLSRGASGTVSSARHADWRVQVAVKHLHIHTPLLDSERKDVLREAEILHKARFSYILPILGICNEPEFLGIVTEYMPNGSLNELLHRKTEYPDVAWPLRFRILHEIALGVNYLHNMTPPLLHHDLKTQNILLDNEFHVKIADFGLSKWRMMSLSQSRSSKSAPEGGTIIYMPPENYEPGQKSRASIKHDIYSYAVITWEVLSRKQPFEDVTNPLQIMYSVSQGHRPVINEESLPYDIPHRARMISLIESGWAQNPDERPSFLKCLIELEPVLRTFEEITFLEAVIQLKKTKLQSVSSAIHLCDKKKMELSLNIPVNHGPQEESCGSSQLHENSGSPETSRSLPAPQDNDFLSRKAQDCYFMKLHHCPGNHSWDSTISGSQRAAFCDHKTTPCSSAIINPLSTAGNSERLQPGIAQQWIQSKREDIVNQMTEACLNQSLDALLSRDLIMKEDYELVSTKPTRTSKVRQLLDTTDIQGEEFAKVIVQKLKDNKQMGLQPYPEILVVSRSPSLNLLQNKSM
Method: as §1
as §3, with “RIPK2” for “MRCKβ”, “0.33 mg/ml myelin basic protein,” for “100 μM KKRNRTLTV (SEQ ID NO:219),”

TSSK2(h) = TSSK2(h) (Homo sapiens, UniProt Q96PF2); settings: read-out: percent residual activity of TSSK2(h)
Chain of TSSK2(h) (Q96PF2 whole entry): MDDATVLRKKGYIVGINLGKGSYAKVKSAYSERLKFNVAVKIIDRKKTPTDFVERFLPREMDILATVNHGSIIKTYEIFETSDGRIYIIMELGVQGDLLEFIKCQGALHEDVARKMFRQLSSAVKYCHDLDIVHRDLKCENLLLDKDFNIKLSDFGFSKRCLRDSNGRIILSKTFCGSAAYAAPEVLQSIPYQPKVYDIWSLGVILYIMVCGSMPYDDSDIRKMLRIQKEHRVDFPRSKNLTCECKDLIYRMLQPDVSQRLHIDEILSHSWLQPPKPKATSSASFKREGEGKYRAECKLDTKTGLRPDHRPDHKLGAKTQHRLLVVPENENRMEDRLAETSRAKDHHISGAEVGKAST
Method: as §1
as §3, with “TSSK2” for “MRCKβ”, “KKRNRTLTV” left out, “NO:213),” for “NO:219),”, “[y-33P-ATP]” for “[gamma-33P-ATP]”

Chain of BTK(h) (Q06187 whole entry): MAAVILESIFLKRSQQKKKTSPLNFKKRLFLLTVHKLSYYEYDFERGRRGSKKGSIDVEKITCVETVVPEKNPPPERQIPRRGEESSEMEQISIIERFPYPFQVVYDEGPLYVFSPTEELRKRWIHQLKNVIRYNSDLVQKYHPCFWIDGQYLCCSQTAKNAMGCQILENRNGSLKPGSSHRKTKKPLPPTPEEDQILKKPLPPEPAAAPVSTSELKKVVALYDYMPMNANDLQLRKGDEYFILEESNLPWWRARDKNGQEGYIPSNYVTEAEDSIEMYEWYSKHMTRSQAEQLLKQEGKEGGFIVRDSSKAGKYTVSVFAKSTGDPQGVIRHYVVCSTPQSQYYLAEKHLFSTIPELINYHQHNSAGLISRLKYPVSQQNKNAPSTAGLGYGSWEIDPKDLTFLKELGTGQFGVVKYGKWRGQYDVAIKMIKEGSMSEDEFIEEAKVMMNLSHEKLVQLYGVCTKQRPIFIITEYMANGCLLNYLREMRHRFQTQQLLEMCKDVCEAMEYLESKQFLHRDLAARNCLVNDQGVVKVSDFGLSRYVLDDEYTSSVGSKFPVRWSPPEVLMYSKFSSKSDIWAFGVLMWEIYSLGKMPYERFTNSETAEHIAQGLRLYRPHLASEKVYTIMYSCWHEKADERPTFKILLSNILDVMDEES

SMILES | remaining activity at 2.5 µM (BTK(h)) [%] | remaining activity at 2.5 µM (MKK4(m)) [%] | remaining activity at 2.5 µM (MRCKβ(h)) [%] | remaining activity at 2.5 µM (PKCδ(h)) [%] | remaining activity at 2.5 µM (PKCμ(h)) [%] | remaining activity at 2.5 µM (RIPK2(h)) [%] | remaining activity at 2.5 µM (TSSK2(h)) [%]
CN1CCCC1CCNC(=O)c1cn2c3c(c(N4CCC(c5cnccn5)C4)c(F)cc3c1=O)Oc1cc3ccccc3cc1-2 (centres unmarked) [Compound A-1] | 60 | 108 | 84 | 105 | 49 | 95 | 105
CC(=O)N1CCN(c2ccc3c(=O)c(C(=O)NCCN4CCCC4)c4n(C)c5ccccc5n4c3n2)CC1 [Compound B-1] | 101 | 99 | 102 | 100 | 94 | 99 | 110

Source: US20070117770A1, “Human ribosomal DNA (rDNA) and ribosomal RNA (rRNA) nucleic acids and uses thereof” (Cylene Pharmaceuticals, Inc., priority 2005, published 2007)
